What was measured:
Assay type in all cases: cell-based
[1] = test system: E. coli PRP1 Tet A; assay: microbe, parasite or virus in culture; settings: E. coli PRP1 Tet A
[2] = test system: S. aureus UBMS 88-5 Tet M; assay: microbe, parasite or virus in culture; settings: S. aureus UBMS 88-5 Tet M
[3] = test system: E. coli ATCC 25922; assay: MIC, agar dilution; settings: E. coli ATCC 25922
[4] = test system: E. coli #311 (MP); assay: MIC, agar dilution; settings: E. coli #311 (MP)
[5] = test system: S. hemolyticus AVHAH 88-3; assay: MIC, agar dilution; settings: S. hemolyticus AVHAH 88-3
[6] = test system: S. aureus UBMS 90-1 Tet M; assay: microbe, parasite or virus in culture; settings: S. aureus UBMS 90-1 Tet M
[7] = test system: S. mariescens FPOR 8733; assay: MIC, agar dilution
[8] = test system: E. faecalis ATCC 29212; assay: MIC, agar dilution; settings: E. faecalis ATCC 29212
[9] = test system: E. coli J2175; assay: MIC, agar dilution; settings: E. coli J2175
[10] = test system: E. coli UBMS 90-5; assay: MIC, agar dilution
[11] = test system: S. aureus UBMS 90-3; assay: MIC, agar dilution; settings: S. aureus UBMS 90-3
[12] = test system: S. aureus UBMS 90-2 Tet M; assay: microbe, parasite or virus in culture; settings: S. aureus UBMS 90-2 Tet M
[13] = test system: S. aureus UBMS 88-4; assay: MIC, agar dilution; settings: S. aureus UBMS 88-4
[14] = test system: S. aureus IVES 2943; assay: MIC, agar dilution; settings: S. aureus IVES 2943
[15] = test system: S. aureus SMITH (MP); assay: MIC, agar dilution; settings: S. aureus SMITH (MP)
[16] = test system: E. coli J3272 Tet C; assay: microbe, parasite or virus in culture; settings: E. coli J3272 Tet C
[17] = test system: S. aureus UBMS 88-7 Tet K; assay: microbe, parasite or virus in culture; settings: S. aureus UBMS 88-7 Tet K
[18] = test system: E. coli UBMS 90-4 Tet M; assay: microbe, parasite or virus in culture; settings: E. coli UBMS 90-4 Tet M
[19] = test system: Ps. acruginosa ATCC 27853; assay: MIC, agar dilution; settings: Ps. acruginosa ATCC 27853
[20] = test system: E. coli MC 4100 Tet sens.; assay: MIC, agar dilution
[21] = test system: S. aureus ATCC 29213; assay: MIC, agar dilution; settings: S. aureus ATCC 29213
[22] = test system: E. coli J3272 Tet D; assay: microbe, parasite or virus in culture; settings: E. coli J3272 Tet D
[23] = test system: E. coli UBMS 89-2 Tet sens.; assay: MIC, agar dilution; settings: E. coli UBMS 89-2 Tet sens.
[24] = test system: Enterococcus 12201; assay: MIC, agar dilution; settings: Enterococcus 12201
[25] = test system: S. aureus IVES 1 983; assay: MIC, agar dilution; settings: S. aureus IVES 1 983
[26] = test system: S. aureus ROSE (MP); assay: MIC, agar dilution; settings: S. aureus ROSE (MP)
[27] = test system: E. coli BAJ9003 IMP MUT; assay: microbe, parasite or virus in culture; settings: E. coli BAJ9003 IMP MUT
[28] = test system: E. coli UBMS 89-1 Tet M; assay: microbe, parasite or virus in culture; settings: E. coli UBMS 89-1 Tet M
[29] = test system: E. coli UBMS 88-1 Tet B; assay: microbe, parasite or virus in culture; settings: E. coli UBMS 88-1 Tet B; 18 hours at 35° C.
[30] = test system: S. aureus NEMC 8769; assay: MIC, agar dilution; settings: S. aureus NEMC 8769
[31] = test system: E. coli J3272 Tet sens.; assay: MIC, agar dilution
[32] = test system: E. coli MC 4100 TNIOC Tet B; assay: microbe, parasite or virus in culture; settings: E. coli MC 4100 TNIOC Tet B
[33] = test system: tetracycline sensitive and resistant Gram-positive and Gram-negative bacteria; assay: In vitro antibacterial activity, summary in words of Table I

Work on “717S-(7alpha,10aalpha)]-N-[9-(Aminocarbonyl)4,7-bis(dimethylamino)-5,5a,6,6a,7,10,10a,12-octahydro-1,8,10a,11-tetrahydroxy-10,12-dioxo-2-naphthacenyl]-4-methyl-l-piperazineacetamide dihydrochloride” yielded an MIC [1] of 16 µg/mL, an MIC [2] of 4 µg/mL and an MIC [3] of 8 µg/mL. It also gave an MIC [4] of 8 µg/mL, an MIC [5] of 16 µg/mL and an MIC [6] of 8 µg/mL. The MIC [7] was over 32 µg/mL, the MIC [8] was 1 µg/mL and the MIC [9] was 8 µg/mL. It also gave an MIC [10] of 8 µg/mL, an MIC [11] of 2 µg/mL and an MIC [12] of 2 µg/mL. For the same molecule, the MIC [13] was 2 µg/mL, the MIC [14] was over 32 µg/mL and the MIC [15] was 0.5 µg/mL. It also gave an MIC [16] of 8 µg/mL, an MIC [17] of 16 µg/mL and an MIC [18] of 8 µg/mL. The MIC [19] was over 32 µg/mL, the MIC [20] was 1 µg/mL and the MIC [21] was 2 µg/mL. The MIC [22] was 4 µg/mL, the MIC [23] was 8 µg/mL and the MIC [24] was 2 µg/mL. For the same molecule, the MIC [25] was over 32 µg/mL, the MIC [26] was over 32 µg/mL and the MIC [27] was 0.5 µg/mL. It also gave an MIC [28] of 8 µg/mL and an MIC [29] of 8 µg/mL.

Work on “[4S-(4alpha,12aalpha)]-9-[(Bromoacetyl)amino]-4,7-bis(dimethylamino)-1,4,4a,5,5a,6, 11,12a-octahydro-3,10,12,12a-tetrahydroxy-1, 11-dioxo-2-naphthacenecarboxamide dihydrochloride” yielded an MIC [1] of over 32 µg/mL, an MIC [2] of 1 µg/mL and an MIC [3] of 16 µg/mL. For the same molecule, the MIC [4] was 8 µg/mL, the MIC [6] was 1 µg/mL and the MIC [7] was over 32 µg/mL. For the same molecule, the MIC [30] was 0.12 µg/mL, the MIC [8] was 0.5 µg/mL and the MIC [9] was 32 µg/mL. The MIC [10] was 16 µg/mL, the MIC [11] was 0.5 µg/mL and the MIC [16] was over 32 µg/mL. It also gave an MIC [19] of over 32 µg/mL, an MIC [21] of 0.5 µg/mL and an MIC [22] of 32 µg/mL. The MIC [23] was 32 µg/mL, the MIC [24] was 1 µg/mL and the MIC [25] was 4 µg/mL. It also gave an MIC [31] of 16 µg/mL, an MIC [32] of over 32 µg/mL and an MIC [28] of 4 µg/mL.

In the case of `CN(C)c1cc(NC(=O)CNCC2CC2)c(O)c2c1CC1CC3C(N(C)C)C(O)=C(C(N)=O)C(=O)C3(O)C(O)=C1C2=O.Cl.Cl` (stereo not shown) [K], the MIC [1] is reported as 4 µg/mL, the MIC [2] is reported as 1 µg/mL and the MIC [6] is reported as 1 µg/mL. It also gave an MIC [7] of 8 µg/mL, an MIC [30] of 1 µg/mL and an MIC [11] of 0.5 µg/mL. It also gave an MIC [12] of 0.5 µg/mL, an MIC [13] of 0.5 µg/mL and an MIC [14] of 8 µg/mL. The MIC [15] was 0.5 µg/mL, the MIC [17] was 4 µg/mL and the MIC [19] was 16 µg/mL. For the same molecule, the MIC [20] was 0.12 µg/mL, the MIC [21] was 1 µg/mL and the MIC [22] was 0.25 µg/mL. The “activity against E. coli tetA, E. coli tetC and E. coli tetD” value [33] was “good activity”, the “in vitro activity against tetracycline resistant strains containing tetM and tetB resistance determinants” value ([33]; S. aureus UBMS 88-5, 90-1, 90-2, E. coli UBMS 89-1, 90-4, 88-1, TN10C tetB) was “excellent” and the “activity against recently isolated bacteria from clinical sources compared with minocycline” value ([33]; clinical isolates) was “superior to that of minocycline”. The “activity against susceptible strains compared with minocycline” value ([33]; susceptible strains) was “equallyas effective as minocycline”, the MIC [23] was 0.5 µg/mL and the MIC [25] was 8 µg/mL. The MIC [27] was 0.12 µg/mL, the MIC [28] was 0.5 µg/mL and the MIC [29] was 0.5 µg/mL.

In the case of `CN(C)c1cc(NC(=O)C2CCCN2C(=O)C(F)(F)F)c(O)c2c1CC1CC3[C@H](N(C)C)C(O)=C(C(N)=O)C(=O)[C@@]3(O)C(O)=C1C2=O.Cl.Cl` (stereo partly drawn) [A, [7S-(7alpha,10aalpha)]-N-[9-(Aminocarbonyl)4,7-bis(dimethylamino)-5,5a,6,6a,7,10,10a, 12-octahydro-l,8,10a,ll-tetrahydroxy-10,12-dioxo-2-naphthacenyl]-l-(trifluoroacetyl)-2-pyrrolidinecarboxamide dihydrochloride], the MIC [1] is reported as over 32 µg/mL, the MIC [2] is reported as 4 µg/mL and the MIC [3] is reported as 8 µg/mL. It also gave an MIC [4] of 8 µg/mL, an MIC [5] of 8 µg/mL and an MIC [6] of 8 µg/mL. The MIC [7] was over 32 µg/mL, the MIC [30] was 1 µg/mL and the MIC [8] was 2 µg/mL. The MIC [9] was 8 µg/mL, the MIC [10] was 4 µg/mL and the MIC [11] was 1 µg/mL. The MIC [12] was 2 µg/mL, the MIC [13] was 4 µg/mL and the MIC [14] was 16 µg/mL. For the same molecule, the MIC [15] was 2 µg/mL, the MIC [16] was 8 µg/mL and the MIC [17] was 16 µg/mL. The MIC [19] was over 32 µg/mL, the MIC [21] was 4 µg/mL and the MIC [22] was 2 µg/mL. The MIC [23] was 8 µg/mL, the MIC [25] was 16 µg/mL and the MIC [26] was 32 µg/mL. It also gave an MIC [27] of 1 µg/mL, an MIC [31] of 8 µg/mL and an MIC [32] of 8 µg/mL. It also gave an MIC [28] of 8 µg/mL and an MIC [29] of 8 µg/mL.

Source: patent US5328902A, “7-(substituted)-9-[(substituted glycyl)amido]-6-demethyl-6-deoxytetracyclines” (American Cyanamid Co., priority 1992, dated 1994)
